According to the supplement of paper PMC11061612:

Assays:
[1] = system: LNCaP-Clone-FGC (Prostate Carcinoma); assay: combination Emax (second highest fraction inhibited in the dose matrix, 72 h); higher = more inhibition; extreme values may be limits of the assay
Outline: (§1)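 Bliss excess equals the observed combination effect minus the expected value EA + EB − EA·EB, where EA and EB are the effects of each agent alone. Combination Emax is the second-highest inhibition within the matrix. Inhibition was scaled from CellTiter-Glo 2.0 luminescence, with 0 set by vehicle wells and 1 by blank wells, after 72 hours of two-drug dosing of cells plated in 1536-well plates.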

AGS (Gastric Carcinoma) = assay: as above
Outline: as §1

[2] = system: HuP-T4 (Pancreatic Carcinoma); assay: as above
Outline: as §1

[3] = system: LB831-BLC (Bladder Carcinoma); assay: as above
Outline: as §1

42-MG-BA (Glioblastoma) = assay: as above
Outline: as §1

KELLY (Neuroblastoma) = assay: as above
Outline: as §1

HOS (Osteosarcoma) [4] = assay: as above
Outline: as §1

[5] = system: LU-135 (Small Cell Lung Carcinoma); assay: as above
Outline: as §1

[6] = system: OVCA420 (Ovarian Carcinoma); assay: as above
Outline: as §1

[7] = system: NCI-H2085 (Non-Small Cell Lung Carcinoma); assay: as above
Outline: as §1

[8] = system: ME-1 (Acute Myeloid Leukemia); assay: as above
Outline: as §1

[9] = system: HT-1376 (Bladder Carcinoma); assay: as above
Outline: as §1

[10] = system: HO-1-N-1 (Oral Cavity Carcinoma); assay: as above
Outline: as §1

[11] = system: KYSE-520 (Esophageal Squamous Cell Carcinoma); assay: as above
Outline: as §1

[12] = system: RO82-W-1 (Thyroid Gland Carcinoma); assay: Bliss excess, mean over the matrix (fraction); higher = more synergy
Outline: as §1

[13] = system: CCRF-CEM (T-Lymphoblastic Leukemia); assay: as above
Outline: as §1

HOS (Osteosarcoma) [14] = assay: as above
Outline: as §1

[15] = system: RC-K8 (B-Cell Non-Hodgkin's Lymphoma); assay: as above
Outline: as §1

[16] = system: NCI-H2085 (Non-Small Cell Lung Carcinoma); assay: as above
Outline: as §1

NOS-1 (Osteosarcoma) = assay: as above
Outline: as §1

| Compound | combination Emax [1] | combination Emax (AGS (Gastric Carcinoma)) | combination Emax [2] | combination Emax [3] | combination Emax (42-MG-BA (Glioblastoma)) | combination Emax (KELLY (Neuroblastoma)) | combination Emax (HOS (Osteosarcoma) [4]) | combination Emax [5] | combination Emax [6] | combination Emax [7] | combination Emax [8] | combination Emax [9] | combination Emax [10] | combination Emax [11] | Bliss excess [12] | Bliss excess [13] | Bliss excess (HOS (Osteosarcoma) [14]) | Bliss excess [15] | Bliss excess [16] | Bliss excess (NOS-1 (Osteosarcoma)) |
| --- | --- | --- | --- | --- | --- | --- | --- | --- | --- | --- | --- | --- | --- | --- | --- | --- | --- | --- | --- | --- |
| CN(CCO)CC[C@H](CSc1ccccc1)Nc1ccc(S(=O)(=O)NC(=O)c2ccc(N3CCC([C@@H](O)c4ccccc4-c4ccc(Cl)cc4)CC3)cc2)cc1S(=O)(=O)C(F)(F)F [AZD4320] + CCN(CCO)CCCOc1ccc2c(Nc3cc(CC(=O)Nc4cccc(F)c4)[nH]n3)ncnc2c1 [AZD2811] (first compound max 1 µM, 7x7, partner max 1 µM) | 0.245 | 0.979 | 0.274 | 0.526 | 0.831 | 0.892 | 0.12 | 1 | 0.174 | 0.692 | 1 | 0.784 | 0.886 | 0.292 | 0.0032 | -0.0228 | -0.0288 | 0.17 | -0.0145 | 0.0616 |
| Cc1nc(Nc2ncc(C(=O)Nc3c(C)cccc3Cl)s2)cc(N2CCN(CCO)CC2)n1 [Dasatinib] + CC(=O)Nc1cccc(-n2c(=O)n(C3CC3)c(=O)c3c(Nc4ccc(I)cc4F)n(C)c(=O)c(C)c32)c1 [Trametinib] (first compound max 2 µM, 7x7, partner max 1 µM) | 0.15 | 1 | 0.486 | 0.493 | 0.971 | 0.556 | 0.397 | 0.0891 | 0.903 | 0.82 | 0.375 | 0.241 | 0.939 | 0.784 | -0.0202 | -0.0032 | -0.0361 | -0.0338 | 0.0168 | 0.0688 |
| Cn1cnc2c(F)c(Nc3ccc(Br)cc3Cl)c(C(=O)NOCCO)cc21 [Selumetinib] + C=CCn1c(=O)c2cnc(Nc3ccc(N4CCN(C)CC4)cc3)nc2n1-c1cccc(C(C)(C)O)n1 [AZD1775] (first compound max 10 µM, partner max 1 µM) | 0.625 | 0.932 | 0.396 | 0.406 | 0.282 | 1 | 0.222 | 0.583 | 0.508 | 0.271 | 0.484 | 0.362 | 0.718 | 0.595 | -0.0769 | 0.0378 | -0.0713 | -0.0714 | -0.0751 | 0.0355 |
| CC(=O)c1c(C)c2cnc(Nc3ccc(N4CCNCC4)cn3)nc2n(C2CCCC2)c1=O [Palbociclib] + CC1(C)CCC(CN2CCN(c3ccc(C(=O)NS(=O)(=O)c4ccc(NCC5CCOCC5)c([N+](=O)[O-])c4)c(Oc4cnc5[nH]ccc5c4)c3)CC2)=C(c2ccc(Cl)cc2)C1 [Venetoclax] (first compound max 10 µM, 7x7, partner max 1 µM) | 0.405 | 0.356 | 0.163 | 0.108 | 0.27 | 0.52 | 0.258 | 0.445 | 0.0625 | 0.167 | 1 | 0.0784 | 0.453 | 0.114 | -0.0825 | -0.008 | -0.0218 | -0.0904 | -0.0306 | 0.0157 |
| NC1(C(=O)N[C@@H](CCO)c2ccc(Cl)cc2)CCN(c2ncnc3[nH]ccc23)CC1 [Capivasertib] + Cn1cnc2c(F)c(Nc3ccc(Br)cc3Cl)c(C(=O)NOCCO)cc21 [Selumetinib] (first compound max 10 µM, 7x7, partner max 10 µM) | 0.969 | 0.953 | 0.396 | 0.545 | 0.737 | 0.44 | 0.491 | 0.352 | 0.651 | 0.427 | 0.342 | 0.18 | 0.848 | 0.583 | -0.0063 | 0.0792 | 0.0007 | 0.0248 | 0.0035 | -0.019 |
| COc1cccc(OCCCN)c1-c1cc(Nc2cnc(C#N)cn2)n[nH]1 [Prexasertib] + CCc1c2c(nc3ccc(O)cc13)-c1cc3c(c(=O)n1C2)COC(=O)[C@]3(O)CC [SN-38] (first compound max 1 µM, 7x7, partner max 0.3 µM) | 0.766 | 0.93 | 0.938 | 0.921 | 1 | 1 | 0.994 | 0.833 | 0.75 | 0.86 | 0.627 | 0.529 | 1 | 0.856 | 0.0431 | -0.0078 | 0.0409 | -0.0506 | -0.0245 | 0.0864 |
| Cc1c2c(nn1C)CSCc1cc(n(C)n1)CSc1cc(c3ccccc3c1)OCCCc1c(C(=O)O)n(C)c3c-2c(Cl)ccc13 [AZD5991] + C[C@@H](Nc1cc(F)cc(F)c1)c1cc(C(=O)N(C)C)cc2c(=O)cc(N3CCOCC3)oc12 [AZD8186] (first compound max 1 µM, 7x7, partner max 3 µM) | 0.894 | 0.246 | 0.442 | 0.366 | 0.963 | 0.726 | 0.174 | 0.417 | 0.282 | 0.691 | 0.787 | 0.225 | 0.933 | 0.412 | 0.0066 | 0.0055 | -0.0169 | -0.0418 | -0.043 | 0.023 |
